Assay results as given in PubChem BioAssay AID256 (DTP/NCI, 2004).
Values joined by “and” are separate entries in the source; they are usually repeats but may differ in a detail not shown here. Identical values can stand only once. Inconclusive results and toxic doses are left out. Rule for the calls: active = survival T/C of 150% or more; inactive = T/C below 125% in these data.

Test system: CD2F1 mice, L1210 leukemia ip, survival T/C
Test: NCI In Vivo Anticancer Drug Screen. Data for tumor model L1210 Leukemia (intraperitoneal) in CD2F1 (CDF1) mice
Conditions: higher = longer survival
Procedure, shortened: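 In this screen, transplantable tumors were grown in mice given either the compound or its vehicle. Results were expressed as the treated measurement relative to the control measurement.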

[1] = endpoint: mean survival time, dose: 100.0 mg/kg/injection, schedule: Q01DX009 (ip), vehicle: saline with Tween-80
[2] = endpoint: mean survival time, dose: 200.0 mg/kg/injection, schedule: Q01DX009 (ip), vehicle: saline with Tween-80
[3] = endpoint: mean survival time, dose: 100.0 mg/kg/injection, schedule: Q04DX003 (ip), vehicle: saline with Tween-80
[4] = endpoint: mean survival time, dose: 200.0 mg/kg/injection, schedule: Q04DX003 (ip), vehicle: saline with Tween-80
[5] = endpoint: mean survival time, dose: 400.0 mg/kg/injection, schedule: Q01DX009 (ip), vehicle: saline with Tween-80
[6] = endpoint: mean survival time, dose: 400.0 mg/kg/injection, schedule: Q04DX003 (ip), vehicle: saline with Tween-80
[7] = endpoint: mean survival time, dose: 100.0 mg/kg/injection, schedule: Q01DX001 (ip), vehicle: saline with Tween-80
[8] = endpoint: mean survival time, dose: 200.0 mg/kg/injection, schedule: Q01DX001 (ip), vehicle: saline with Tween-80
[9] = endpoint: mean survival time, dose: 400.0 mg/kg/injection, schedule: Q01DX001 (ip), vehicle: saline with Tween-80
[10] = endpoint: mean survival time, dose: 12.5 mg/kg/injection, schedule: Q01DX009 (ip), vehicle: Klucel (hydroxypropylcellulose) (HPC)
[11] = endpoint: mean survival time, dose: 50.0 mg/kg/injection, schedule: Q01DX009 (ip), vehicle: Klucel (hydroxypropylcellulose) (HPC)
[12] = endpoint: mean survival time, dose: 100.0 mg/kg/injection, schedule: Q01DX009 (ip), vehicle: Klucel (hydroxypropylcellulose) (HPC)

Measured: T/C

COc1cc(OC)c(C(=O)c2ccccc2N)c(OC)c1
inactive: endpoint: mean survival time, dose: 50.0 mg/kg/injection, schedule: Q01DX009 (ip), vehicle: saline with Tween-80 98 % of control | [1] 101 % of control | [2] 98 % of control

CC1(C)OC2C3COP(=O)(N(CCCl)CCCl)NC(O3)C2O1 (stereo unspecified)
inactive: endpoint: mean survival time, dose: 3.9 mg/kg/injection, schedule: Q01DX001 (ip), vehicle: distilled water + Tween-80 98 % of control | endpoint: mean survival time, dose: 3.9 mg/kg/injection, schedule: Q01DX001 (ip), vehicle: distilled water + alcohol 103 % of control | endpoint: mean survival time, dose: 7.8 mg/kg/injection, schedule: Q01DX001 (ip), vehicle: distilled water + Tween-80 98 % of control | endpoint: mean survival time, dose: 7.8 mg/kg/injection, schedule: Q01DX001 (ip), vehicle: distilled water + alcohol 108 % of control | endpoint: mean survival time, dose: 15.6 mg/kg/injection, schedule: Q01DX001 (ip), vehicle: distilled water + alcohol 98 % of control | endpoint: mean survival time, dose: 31.2 mg/kg/injection, schedule: Q01DX001 (ip), vehicle: distilled water + Tween-80 98 % of control | endpoint: mean survival time, dose: 31.2 mg/kg/injection, schedule: Q01DX001 (ip), vehicle: distilled water + alcohol 103 % of control | endpoint: mean survival time, dose: 31.3 mg/kg/injection, schedule: Q01DX001 (ip), vehicle: distilled water + Tween-80 98 % of control | endpoint: mean survival time, dose: 62.5 mg/kg/injection, schedule: Q01DX001 (ip), vehicle: distilled water + Tween-80 98 % of control | endpoint: mean survival time, dose: 125.0 mg/kg/injection, schedule: Q01DX001 (ip), vehicle: distilled water + Tween-80 96 % of control | endpoint: mean survival time, dose: 250.0 mg/kg/injection, schedule: Q01DX001 (ip), vehicle: distilled water + Tween-80 96 % of control | endpoint: mean survival time, dose: 500.0 mg/kg/injection, schedule: Q01DX001 (ip), vehicle: distilled water + Tween-80 97 % of control

COC(=O)C1C2CC(C(Br)C2Br)C1C(=O)O (stereo unspecified)
inactive: [1] 96 % of control | [3] 96 % of control | [2] 98 % of control | [4] 96 % of control and 94 % of control | [5] 97 % of control | [6] 88 % of control and 98 % of control

COc1cccc2c1C(=O)c1c(O)c3c(c(O)c1C2=O)C[C@@](O)(C(C)=O)C[C@@H]3OC1CC(N(C)C)C(O)C(C)O1 (stereo partly specified)
active: endpoint: mean survival time, dose: 4.0 mg/kg/injection, schedule: Q01DX009 (ip), vehicle: saline 161 % of control
inactive: endpoint: mean survival time, dose: 0.25 mg/kg/injection, schedule: Q01DX009 (ip), vehicle: saline 109 % of control | endpoint: mean survival time, dose: 0.5 mg/kg/injection, schedule: Q01DX009 (ip), vehicle: saline 120 % of control and 111 % of control | endpoint: mean survival time, dose: 0.5 mg/kg/injection, schedule: Q01DX009 (ip), vehicle: water 110 % of control | endpoint: mean survival time, dose: 1.0 mg/kg/injection, schedule: Q01DX009 (ip), vehicle: saline 105 % of control | endpoint: mean survival time, dose: 1.0 mg/kg/injection, schedule: Q01DX009 (ip), vehicle: water 119 % of control | endpoint: mean survival time, dose: 2.0 mg/kg/injection, schedule: Q01DX009 (ip), vehicle: saline 102 % of control | endpoint: mean survival time, dose: 8.0 mg/kg/injection, schedule: Q01DX009 (ip), vehicle: saline 88 % of control and 103 % of control | endpoint: mean survival time, dose: 8.0 mg/kg/injection, schedule: Q01DX009 (ip), vehicle: water 88 % of control

O/N=C(\c1ccccc1)C1C(/C(=N/O)c2ccccc2)C1c1ccccc1 (stereo unspecified)
inactive: endpoint: mean survival time, dose: 50.0 mg/kg/injection, schedule: Q04DX002 (ip), vehicle: saline with Tween-80 90 % of control | endpoint: mean survival time, dose: 100.0 mg/kg/injection, schedule: Q04DX002 (ip), vehicle: saline with Tween-80 87 % of control

O=C1C=CC(=O)N1c1ccccc1N1C(=O)C=CC1=O
inactive: endpoint: mean survival time, dose: 1.25 mg/kg/injection, schedule: Q01DX009 (ip), vehicle: Klucel (hydroxypropylcellulose) (HPC) 90 % of control | endpoint: mean survival time, dose: 2.5 mg/kg/injection, schedule: Q01DX009 (ip), vehicle: Klucel (hydroxypropylcellulose) (HPC) 94 % of control

COc1ccc(/C=C/c2ccc3ccccc3n2)c(OC)c1
inactive: [1] 96 % of control | [3] 96 % of control | [2] 102 % of control | [4] 96 % of control | [5] 95 % of control | [6] 96 % of control

CC(C)(O)C(Cl)S(=O)c1ccccc1 (stereo unspecified)
inactive: endpoint: mean survival time, dose: 37.5 mg/kg/injection, schedule: Q04DX003 (ip), vehicle: saline with Tween-80 100 % of control | endpoint: mean survival time, dose: 75.0 mg/kg/injection, schedule: Q04DX003 (ip), vehicle: saline with Tween-80 100 % of control | endpoint: mean survival time, dose: 85.0 mg/kg/injection, schedule: Q04DX002 (ip), vehicle: saline with Tween-80 88 % of control | endpoint: mean survival time, dose: 150.0 mg/kg/injection, schedule: Q04DX003 (ip), vehicle: saline with Tween-80 103 % of control | endpoint: mean survival time, dose: 190.0 mg/kg/injection, schedule: Q04DX002 (ip), vehicle: saline with Tween-80 90 % of control | endpoint: mean survival time, dose: 300.0 mg/kg/injection, schedule: Q04DX003 (ip), vehicle: saline with Tween-80 102 % of control

c1ccc(C[N+]23CCC(CC2)CC3)cc1
inactive: endpoint: mean survival time, dose: 6.25 mg/kg/injection, schedule: Q04DX003 (ip), vehicle: saline 104 % of control | endpoint: mean survival time, dose: 12.5 mg/kg/injection, schedule: Q04DX003 (ip), vehicle: saline 103 % of control

CC1(CO)CCCC2(C)C3=C(CCCC3)CCC12 (stereo unspecified)
inactive: endpoint: mean survival time, dose: 50.0 mg/kg/injection, schedule: Q04DX003 (ip), vehicle: saline with Tween-80 97 % of control | [3] 101 % of control | [4] 97 % of control

Cc1ccc2c(c1)C(=NCCCN=C1C(=O)Nc3ccc(C)cc31)C(=O)N2
inactive: [7] 103 % of control | [8] 95 % of control | [9] 98 % of control

Cc1ccc(Cl)c(I)c1
inactive: endpoint: mean survival time, dose: 100.0 mg/kg/injection, schedule: Q01DX001 (ip), vehicle: Klucel (hydroxypropylcellulose) (HPC) 101 % of control | endpoint: mean survival time, dose: 200.0 mg/kg/injection, schedule: Q01DX001 (ip), vehicle: Klucel (hydroxypropylcellulose) (HPC) 103 % of control | endpoint: mean survival time, dose: 400.0 mg/kg/injection, schedule: Q01DX001 (ip), vehicle: Klucel (hydroxypropylcellulose) (HPC) 106 % of control

COc1cc(OC)c(OC)cc1/C=C\c1ccnc2ccccc12
inactive: [10] 96 % of control | endpoint: mean survival time, dose: 25.0 mg/kg/injection, schedule: Q01DX009 (ip), vehicle: Klucel (hydroxypropylcellulose) (HPC) 95 % of control | [11] 98 % of control | [12] 102 % of control | endpoint: mean survival time, dose: 200.0 mg/kg/injection, schedule: Q01DX009 (ip), vehicle: Klucel (hydroxypropylcellulose) (HPC) 112 % of control | endpoint: mean survival time, dose: 400.0 mg/kg/injection, schedule: Q01DX009 (ip), vehicle: Klucel (hydroxypropylcellulose) (HPC) 110 % of control

Cc1ccc(C(=O)CCCCl)c(C)c1
inactive: [1] 111 % of control | [2] 104 % of control | [5] 104 % of control

O=C(O)CN(CC(=O)O)C1CCCCC1N(CC(=O)O)CC(=O)O.[Cl][Pt+2][Cl] (stereo unspecified)
inactive: endpoint: median survival time, dose: 10.0 mg/kg/injection, schedule: Q04DX003 (ip), vehicle: saline 96 % of control | endpoint: median survival time, dose: 20.0 mg/kg/injection, schedule: Q04DX003 (ip), vehicle: saline 106 % of control | endpoint: median survival time, dose: 40.0 mg/kg/injection, schedule: Q04DX003 (ip), vehicle: saline 103 % of control and 104 % of control | endpoint: median survival time, dose: 80.0 mg/kg/injection, schedule: Q04DX003 (ip), vehicle: saline 106 % of control and 109 % of control

NC(=O)C(c1ccccc1)N1CCOCC1 (stereo unspecified)
inactive: endpoint: mean survival time, dose: 100.0 mg/kg/injection, schedule: Q01DX009 (ip), vehicle: saline 100 % of control | endpoint: mean survival time, dose: 200.0 mg/kg/injection, schedule: Q01DX009 (ip), vehicle: saline 101 % of control | endpoint: mean survival time, dose: 400.0 mg/kg/injection, schedule: Q01DX009 (ip), vehicle: saline 105 % of control

Cc1ncoc1C(=O)O
inactive: [3] 109 % of control | [4] 104 % of control

O=C(COc1cccc(Cl)c1)NCc1ccccc1NC(=O)c1ccc(S(=O)(=O)F)cc1
inactive: [7] 91 % of control | [8] 95 % of control | [9] 91 % of control

Cc1ccc(CNc2cccnc2)cc1
inactive: [3] 98 % of control | [4] 93 % of control | [6] 95 % of control

C[N+](C)(C)C(Cc1c[nH]c2ccccc12)C(=O)O (stereo unspecified)
inactive: endpoint: mean survival time, dose: 100.0 mg/kg/injection, schedule: Q01DX001 (ip), vehicle: saline 91 % of control | endpoint: mean survival time, dose: 100.0 mg/kg/injection, schedule: Q04DX003 (ip), vehicle: saline 96 % of control and 100 % of control | endpoint: mean survival time, dose: 200.0 mg/kg/injection, schedule: Q01DX001 (ip), vehicle: saline 101 % of control | endpoint: mean survival time, dose: 200.0 mg/kg/injection, schedule: Q04DX003 (ip), vehicle: saline 105 % of control and 97 % of control | endpoint: mean survival time, dose: 400.0 mg/kg/injection, schedule: Q01DX001 (ip), vehicle: saline 95 % of control | endpoint: mean survival time, dose: 400.0 mg/kg/injection, schedule: Q04DX003 (ip), vehicle: saline 94 % of control and 95 % of control

OCc1ccn2c1CCC2
inactive: [10] 101 % of control | [11] 100 % of control | [12] 101 % of control

CSc1nc(N)cc(N)n1
inactive: [1] 98 % of control | [3] 98 % of control | [2] 95 % of control | [4] 97 % of control | [5] 100 % of control | [6] 102 % of control
